The text below walks through data of ChEMBL document CHEMBL1275538, “In vitro activity of OPT-80 tested against clinical isolates of toxin-producing Clostridium difficile” (Antimicrob Agents Chemother, 2008).

In data set [1] the test system is Clostridioides difficile. As to the kind of experiment: Antibacterial activity against toxin-positive Clostridium difficile clinical isolate by agar dilution method in presence of clavulanic acid. Type of data set: functional.
In data set [2] the test system is Clostridioides difficile. As to the kind of experiment: Antibacterial activity against toxin-positive Clostridium difficile clinical isolate by agar dilution method. Type of data set: functional.
Data set [3] has as its system Clostridioides difficile. As to the kind of experiment: Antibacterial activity against toxin-positive Clostridium difficile clinical isolate assessed as percent of susceptible isolates by agar dilution method. It counts as functional.
Data set [4] relates to Clostridioides difficile. As to the kind of experiment: Antibacterial activity against Clostridium difficile by broth microdilution method using Wilkins-Chalgren broth. Type of data set: functional.
In data set [5] the test system is Clostridioides difficile. As to the kind of experiment: Antibacterial activity against Clostridium difficile by M11-A6 CLSI agar dilution. Type of data set: functional.
Data set [6] deals with Clostridioides difficile. Nature of the data set: Antibacterial activity against Clostridium difficile by M11-A7 CLSI agar dilution. Type of data set: functional.
Data set [7] is described as follows: Cmax in syrian golden hamster serum at 200 mg administered BID after 1.5 hrs. It counts as ADME, organism-based, Mesocricetus auratus. More on the design: dose 200 mg.
For data set [8], the system named is Clostridioides difficile. As to the kind of experiment: Antibacterial activity against Clostridium difficile by agar dilution method using Wilkins-Chalgren agar. It counts as functional.
Data set [9] relates to Clostridioides difficile. As to the kind of experiment: Antibacterial activity against Clostridium difficile by M11-A5 CLSI agar dilution. It counts as functional.
Data set [10] in a line: Apparent elimination half-life in syrian golden hamster at 400 mg/kg. The arrangement: dose 400 mg/kg. The note with it: in vivo, read-out: beta t1/2 (converted). Type of data set: ADME, organism-based, Mesocricetus auratus.
Data set [11] relates to Clostridioides difficile. Nature of the data set: Antibacterial activity against toxin-positive Clostridium difficile clinical isolate by agar dilution method in presence of Tazobactam. Type of data set: functional.

SMILES strings stand for the structures. Converted amounts (≈) assume the structure as drawn.

`CC1(C)S[C@@H]2[C@H](NC(=O)[C@H](N)c3ccc(O)cc3)C(=O)N2[C@H]1C(=O)O` [AMOXICILLIN]: in the data set with Clostridioides difficile [1], the MIC50 was 1 µg/mL and the MIC90 amounted to 1 µg/mL.
In the data set on Clostridioides difficile [2], `CO/N=C(\C(=O)N[C@@H]1C(=O)N2C(C(=O)O)=C(CSc3nc(=O)c(O)nn3C)CS[C@H]12)c1csc(N)n1` [CEFTRIAXONE] had an MIC50 of 32 µg/mL (≈ 57.7 µM) and an MIC90 of 128 µg/mL (≈ 231 µM). For the same molecule, in the data set with Clostridioides difficile [3], the Activity is recorded as 1%.
In the same order, the values of `CCC[C@@H]1C[C@@H](C(=O)N[C@@H]([C@H]2O[C@H](SC)[C@H](O)[C@@H](O)[C@H]2O)[C@H](C)Cl)N(C)C1` [CLINDAMYCIN] are 8 µg/mL (≈ 18.8 µM), more than 16 µg/mL and 17.3%.
Regarding `CCc1c(Cl)c(O)c(Cl)c(O)c1C(=O)O[C@H]1[C@H](O)[C@H](OC)[C@H](OC/C2=C\C=C\C[C@H](O)/C(C)=C/[C@H](CC)[C@@H](O[C@@H]3OC(C)(C)[C@@H](OC(=O)C(C)C)[C@H](O)[C@@H]3O)/C(C)=C/C(C)=C/C[C@@H]([C@@H](C)O)OC2=O)O[C@@H]1C` [FIDAXOMICIN], the MIC50 against Clostridioides difficile [4] is 1.9 ng/mL (≈ 0.0018 µM); against Clostridioides difficile [2] it was 0.25 µg/mL (≈ 0.236 µM); in the data set on Clostridioides difficile [5], 0.125 µg/mL (≈ 0.118 µM); in the data set on Clostridioides difficile [6] it was 0.25 µg/mL (≈ 0.236 µM); with Clostridioides difficile [8], 0.25 µg/mL (≈ 0.236 µM); against Clostridioides difficile [9], not above 0.016 µg/mL. Besides, the MIC90 in the data set on Clostridioides difficile [4] amounted to 7.8 ng/mL (≈ 0.00737 µM); in the data set on Clostridioides difficile [2] it was 0.5 µg/mL (≈ 0.473 µM); against Clostridioides difficile [5] it was 0.125 µg/mL (≈ 0.118 µM); in the data set on Clostridioides difficile [6] it was 0.5 µg/mL (≈ 0.473 µM); against Clostridioides difficile [8] it was 0.25 µg/mL (≈ 0.236 µM); in the data set on Clostridioides difficile [9], 0.125 µg/mL (≈ 0.118 µM). In addition, the Cmax in [7] was 26.5 ng/mL. The molecule also registered an MIC against Clostridioides difficile [9] not above 0.06 µg/mL. Also, the half-life in [10] was 56.4 min.
In the data set with Clostridioides difficile [2], `C[C@@H](O)[C@H]1C(=O)N2C(C(=O)O)=C(S[C@@H]3CN[C@H](C(=O)N(C)C)C3)[C@H](C)[C@H]12` [MEROPENEM] gave an MIC50 of 2 µg/mL (≈ 5.22 µM) and an MIC90 of 2 µg/mL (≈ 5.22 µM).
`CCN1CCN(C(=O)N[C@@H](C(=O)N[C@@H]2C(=O)N3[C@@H]2SC(C)(C)[C@@H]3C(=O)O)c2ccccc2)C(=O)C1=O` [PIPERACILLIN]: in the data set on Clostridioides difficile [11], the MIC50 came to 8 µg/mL and the MIC90 is 8 µg/mL.
In the data set on Clostridioides difficile [2], `CO[C@H]1/C=C/O[C@@]2(C)Oc3c(C)c(O)c4c(O)c(c(/C=N/N5CCN(C)CC5)c(O)c4c3C2=O)NC(=O)/C(C)=C\C=C\[C@H](C)[C@H](O)[C@@H](C)[C@@H](O)[C@@H](C)[C@H](OC(C)=O)[C@@H]1C` [RIFAMPIN] showed an MIC50 of 0.015 µg/mL (≈ 0.0182 µM) and an MIC90 of 0.015 µg/mL (≈ 0.0182 µM).
